A short description of data set [1]: Microsomal stability, mouse liver microsomes. The format is in vitro ADME. The conditions noted are these: C57BL6, mouse, pooled liver microsomes.
Data set [2] can be described thus: Metabolic stability in mouse liver S9 fraction. It counts as in vitro ADME.
The nature of data set [3]: Plasma stability, minipig. It counts as in vitro ADME. The conditions noted are these: Göttingen, pooled plasma, species profiling, read-out: Plasma T1/2 Minipig (Göttingen).
Data set [4] is described as follows: Lipophilicity determination (LogD7.4, HPLC-MS). Conditions: pH 7.4, pH 7.4, chromatographic. The format is physicochemical.
Protocol: Lipophilicity determination. LogD7.4 was analyzed using an HPLC−MS based method.50 The retention time of 12 compounds with known LogD7.4 was determined and plotted toward their LogD7.4. Linear regression was used to determine the LogD7.4 of unknown compounds. Analysis was performed using a Dionex Ultimate 3000 HPLC system coupled to a TSQ Quantum Access MAX (Thermo Fisher, Dreieich, Germany) with the following conditions: EC150/2 NUCLEODUR C18 Pyramid column, 5 μM (Macherey Nagel, Düren, Germany); eluent A: 50 mM NH4OAc pH 7.4, eluent B: acetonitrile, and flow: 0.6 mL/min.
Data set [5] in a line: Metabolic stability in human liver S9 fraction. The format is in vitro ADME.
A short description of another data set: Plasma stability, mouse. It counts as in vitro ADME. The conditions noted are these: for half-life: C57BL6, mouse, pooled plasma, species profiling, read-out: Plasma T1/2 Mouse (C57BL6); for half-life at 1 μM: mouse plasma, read-out: Plasma T1/2 Mouse.
A short description of the next data set: Plasma stability, rat. The format is in vitro ADME. The conditions noted are these: Wistar, pooled plasma, species profiling, read-out: Plasma T1/2 Rat (Wistar).
A short description of data set [6]: Microsomal stability, rat liver microsomes. The format is in vitro ADME. Conditions: Wistar, pooled liver microsomes.
The target in the next data set is T1, LasB (Pseudomonas aeruginosa, UniProt Q02RJ6).
T1 construct: made in house
Put plainly: biochemical. It counts as biochemical.

Data set [7] is described as follows: Microsomal stability, minipig liver microsomes. It counts as in vitro ADME. The conditions noted are these: Göttingen, pooled liver microsomes. On the technique in general: Liver microsomes are vesicles of endoplasmic reticulum, rich in cytochrome P450 enzymes.
A further data set deals with T2, TACE (Homo sapiens, UniProt P78536).
T2 construct: purchased Sigma-Aldrich (Saint Louis, MO)
Put plainly: TACE inhibitor screening kit. It counts as biochemical. Conditions: 100 μM; read-out: % inhibition TACE.

The target of another data set is T3, MMP-2 (Homo sapiens, UniProt P08253).
T3 construct: purchased AnaSpec (Fremont, CA, USA)
T3 sequence (P08253 110-660): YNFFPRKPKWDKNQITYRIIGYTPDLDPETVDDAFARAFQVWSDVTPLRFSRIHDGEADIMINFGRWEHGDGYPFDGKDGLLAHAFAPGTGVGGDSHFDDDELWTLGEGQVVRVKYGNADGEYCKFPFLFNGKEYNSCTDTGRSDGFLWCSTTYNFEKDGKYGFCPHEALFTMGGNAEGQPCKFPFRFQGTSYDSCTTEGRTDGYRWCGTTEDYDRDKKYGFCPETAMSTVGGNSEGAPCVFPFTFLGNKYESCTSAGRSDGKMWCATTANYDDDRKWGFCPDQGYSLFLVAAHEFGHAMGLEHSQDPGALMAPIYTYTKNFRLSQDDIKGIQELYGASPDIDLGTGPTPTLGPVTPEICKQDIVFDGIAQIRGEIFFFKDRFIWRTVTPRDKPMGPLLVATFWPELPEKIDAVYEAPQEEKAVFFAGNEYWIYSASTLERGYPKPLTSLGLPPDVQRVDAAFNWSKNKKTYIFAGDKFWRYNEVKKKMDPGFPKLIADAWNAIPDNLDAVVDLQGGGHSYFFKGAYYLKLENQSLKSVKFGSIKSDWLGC
Put plainly: MMP-2 inhibition assay. The format is biochemical. Conditions: 100 μM; read-out: % inhibition MMP-2.

In the next data set the target is T4, COX-1 (Ovis aries, UniProt P05979).
T4 construct: purchased Abcam (Cambridge, UK)
T4 sequence (P05979 25-600): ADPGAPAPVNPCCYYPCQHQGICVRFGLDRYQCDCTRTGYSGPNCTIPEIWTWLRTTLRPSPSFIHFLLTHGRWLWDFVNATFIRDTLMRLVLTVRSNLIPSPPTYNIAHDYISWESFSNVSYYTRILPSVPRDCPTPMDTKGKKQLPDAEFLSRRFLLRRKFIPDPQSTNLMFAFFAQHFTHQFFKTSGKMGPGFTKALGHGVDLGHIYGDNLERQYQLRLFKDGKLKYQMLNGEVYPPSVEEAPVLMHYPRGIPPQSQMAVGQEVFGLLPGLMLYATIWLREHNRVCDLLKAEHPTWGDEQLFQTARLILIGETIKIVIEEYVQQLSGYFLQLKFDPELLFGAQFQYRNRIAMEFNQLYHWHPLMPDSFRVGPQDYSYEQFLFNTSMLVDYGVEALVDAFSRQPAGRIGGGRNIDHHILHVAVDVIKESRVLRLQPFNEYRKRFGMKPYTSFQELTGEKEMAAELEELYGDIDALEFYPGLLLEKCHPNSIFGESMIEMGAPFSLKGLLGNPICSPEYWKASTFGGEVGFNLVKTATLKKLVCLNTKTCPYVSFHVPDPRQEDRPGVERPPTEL
The experiment in a line: Fluorometric COX-1 inhibitor assay. It counts as biochemical, human.

The next data set addresses T5, HDAC-3 (Homo sapiens, UniProt O15379).
T5 construct: purchased Sigma-Aldrich (Saint Louis, MO)
The experiment in a line: HDAC-3 inhibitor screening kit. The format is biochemical.

Another data set addresses T6, MMP-3 (Homo sapiens, UniProt P08254).
T6 construct: purchased AnaSpec (Fremont, CA, USA)
Put plainly: MMP-3 inhibition assay. Conditions: 100 μM; read-out: % inhibition MMP-3. It counts as biochemical.

A further data set in a line: Calu-3 permeability. The format is in vitro ADME. Conditions: human.
The target in another data set is T7, HDAC-8 (Homo sapiens, UniProt Q9BY41).
T7 construct: purchased Sigma-Aldrich (Saint Louis, MO)
T7 sequence (Q9BY41 1-377): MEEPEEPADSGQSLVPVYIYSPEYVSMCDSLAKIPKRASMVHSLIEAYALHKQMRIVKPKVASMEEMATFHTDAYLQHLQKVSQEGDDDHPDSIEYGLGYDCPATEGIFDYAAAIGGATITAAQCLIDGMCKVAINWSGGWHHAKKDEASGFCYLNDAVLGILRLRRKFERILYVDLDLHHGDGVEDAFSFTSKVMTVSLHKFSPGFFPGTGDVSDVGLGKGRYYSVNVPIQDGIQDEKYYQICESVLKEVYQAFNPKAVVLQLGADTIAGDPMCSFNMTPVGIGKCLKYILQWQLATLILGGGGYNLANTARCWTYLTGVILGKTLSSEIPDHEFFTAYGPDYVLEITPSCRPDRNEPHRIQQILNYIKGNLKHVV
The experiment in a line: HDAC-8 inhibitor screening kit. The format is biochemical.

A further data set relates to HEK293. Conditions: human, 48 h, 100 µM.
The next data set has as its target T8, MMP-1 (Homo sapiens, UniProt P03956).
T8 construct: purchased AnaSpec (Fremont, CA, USA)
T8 sequence (P03956 100-469): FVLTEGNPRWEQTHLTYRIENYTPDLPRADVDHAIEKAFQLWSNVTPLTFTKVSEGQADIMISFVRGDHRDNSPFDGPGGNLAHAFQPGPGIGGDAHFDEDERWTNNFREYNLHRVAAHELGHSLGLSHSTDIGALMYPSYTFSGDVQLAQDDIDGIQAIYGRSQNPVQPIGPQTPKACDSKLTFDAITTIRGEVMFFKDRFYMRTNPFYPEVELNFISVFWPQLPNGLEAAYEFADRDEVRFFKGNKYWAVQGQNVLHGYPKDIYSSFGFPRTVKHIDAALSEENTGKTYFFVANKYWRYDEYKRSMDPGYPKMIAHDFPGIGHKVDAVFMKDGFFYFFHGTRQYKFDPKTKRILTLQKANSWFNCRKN
The experiment in a line: MMP-1 inhibition assay. The format is biochemical. The conditions noted are these: 100 μM; read-out: % inhibition MMP-1.

In data set [8] the test system is A549 cells treated with P. aeruginosa PAO1 and PA14 supernatants. The experiment in a line: A549 cells challenged with P. aeruginosa culture supernatants. The conditions noted are these: PAO1 or PA14 csn.
Protocol: Cells were maintained according to standard cell
PA14 csn production. The csn of wt PA14 and ΔlasB PA14 was produced as we previously
Validation of the effect of LasB inhibitors on A549 cells in vitro. The experiment was performed
as described previously.32 The Picrosirius red assay was performed by washing the csn-challenged
cells (± inhibitor) 3x with PBS followed by an incubation with Bouin solution (Sigma) at RT for
20 min. The cells were incubated with 0.1% Picrosirius red dye (ab150681) at RT for 2 h. Then,
they were washed once with 0.01 N HCl, and the matrix was dissolved in 0.01 N NaOH. The
absorption was measured at 570 nm using a PHERAstar plate reader (BMG Labtech). By dividing
the absorbance of each sample by the absorbance of the healthy sample, the relative collagen
quantity was determined. For each condition, the experiment was performed three times. To
determine the rescue of A549 cells treated with 5% wt PA14 csn using our compounds, the LasB
inhibitors were used at 2, 0.5, 0.1 and 0.05 µM. The compounds were incubated in F12K medium,
Cell detachment was then evaluated, and a Trypan Blue cell
cells/well were seeded into a flat bottom 96-well plate (Corning™ Costar™) and incubated at 37
were tested against 10% (v/v) P. aeruginosa PAO1 csn diluted in DMEM starting from 10 µM
and 20 µM, respectively. Compound was initially dissolved in DMSO, and a low final assay
concentration of 0.5% (v/v) was applied to minimize the proteolytic effect of DMSO on the
bacterial culture supernatant. In addition, cells were challenged with 10% (v/v) of ΔlasB PAO1 to
Another data set concerns 3D lung organoids. Put plainly: Lung organoid assay. The format is cell-based, human.
The test system of a further data set is P. aeruginosa PA14. Put plainly: Bacterial growth inhibition assay. It counts as cell-based, Pseudomonas aeruginosa. The conditions noted are these: Pseudomonas aeruginosa, PA14; 100 µM compound concentration; read-out: Percent (%) growth inhibition of P. aeruginosa PA14.
Data set [9] concerns Eurofins SafetyScreen44 panel. Put plainly: Off-target SafetyScreen44 panel. The conditions noted are these: 10 μM. From the text: Then, we assessed potential additional safety liabilities of 4a and 4b using the Eurofins SafetyScreen44 panel to identify the most important off-target interactions at an early stage. […] Furthermore, to gain a deeper insight into the potential clinical applicability, we investigated the toxicity of compounds in vivo on zebrafish embryos.
Off-Target Safety Screen44TM Panel.
Eurofins Cerep, according to their guidelines.
their Standard Operating Procedures.
Zebrafish embryo toxicity.

The target in a further data set is ColH-PD (Hathewaya histolytica, UniProt Q46085). Put plainly: biochemical. It counts as biochemical, Clostridium histolyticum. The conditions noted are these: read-out: % inhibition ColH-PD @1 µM.
The next data set concerns zebrafish embryos. The experiment in a line: Zebrafish embryo toxicity.
[10] abbreviates: FRET-based assay, read-out: LasB IC50.

Where two headings read alike, the source gives them in different places. A value given as a limit tells only on which side of the number the result lay.

T1 sequence (Q02RJ6 198-498): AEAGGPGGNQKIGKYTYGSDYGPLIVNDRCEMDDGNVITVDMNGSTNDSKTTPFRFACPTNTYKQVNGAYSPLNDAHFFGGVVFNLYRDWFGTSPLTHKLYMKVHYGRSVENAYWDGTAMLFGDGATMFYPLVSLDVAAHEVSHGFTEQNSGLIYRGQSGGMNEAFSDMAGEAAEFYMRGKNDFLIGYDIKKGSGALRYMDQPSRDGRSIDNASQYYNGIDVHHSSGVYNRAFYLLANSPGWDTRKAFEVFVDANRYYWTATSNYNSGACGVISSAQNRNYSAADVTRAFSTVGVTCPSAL
T2 sequence (P78536 215-824): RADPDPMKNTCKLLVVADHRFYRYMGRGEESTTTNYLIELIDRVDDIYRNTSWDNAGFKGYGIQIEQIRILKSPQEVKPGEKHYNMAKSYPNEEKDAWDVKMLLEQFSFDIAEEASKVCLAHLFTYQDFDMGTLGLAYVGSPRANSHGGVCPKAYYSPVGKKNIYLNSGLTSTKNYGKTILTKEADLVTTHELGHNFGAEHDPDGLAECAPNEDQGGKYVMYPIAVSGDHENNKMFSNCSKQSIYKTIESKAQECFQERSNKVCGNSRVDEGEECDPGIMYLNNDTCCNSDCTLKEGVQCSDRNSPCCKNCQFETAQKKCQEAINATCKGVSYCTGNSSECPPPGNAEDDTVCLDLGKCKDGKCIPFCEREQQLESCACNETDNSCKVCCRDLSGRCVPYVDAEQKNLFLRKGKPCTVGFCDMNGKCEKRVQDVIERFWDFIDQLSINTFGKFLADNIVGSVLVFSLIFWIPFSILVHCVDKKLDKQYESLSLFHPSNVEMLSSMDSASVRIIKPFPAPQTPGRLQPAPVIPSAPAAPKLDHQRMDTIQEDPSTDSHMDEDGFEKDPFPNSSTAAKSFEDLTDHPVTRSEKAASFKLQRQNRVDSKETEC
T5 sequence (O15379 whole entry): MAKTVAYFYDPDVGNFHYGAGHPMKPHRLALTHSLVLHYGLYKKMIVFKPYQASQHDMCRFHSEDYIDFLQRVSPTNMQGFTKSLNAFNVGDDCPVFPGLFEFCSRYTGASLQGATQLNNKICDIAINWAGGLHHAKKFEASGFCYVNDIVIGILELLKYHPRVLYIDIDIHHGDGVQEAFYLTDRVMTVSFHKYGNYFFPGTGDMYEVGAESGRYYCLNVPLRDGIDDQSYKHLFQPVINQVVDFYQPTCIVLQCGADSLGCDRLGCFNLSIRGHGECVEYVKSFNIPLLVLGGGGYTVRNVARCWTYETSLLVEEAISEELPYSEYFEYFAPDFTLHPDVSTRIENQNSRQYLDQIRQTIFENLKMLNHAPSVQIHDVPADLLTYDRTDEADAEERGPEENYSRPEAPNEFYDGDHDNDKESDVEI
T5 sequence (Q9Y618 395-489 partner limits assumed): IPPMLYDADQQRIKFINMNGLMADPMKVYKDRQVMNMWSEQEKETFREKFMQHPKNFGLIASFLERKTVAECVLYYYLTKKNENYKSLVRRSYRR
T6 sequence (P08254 100-477): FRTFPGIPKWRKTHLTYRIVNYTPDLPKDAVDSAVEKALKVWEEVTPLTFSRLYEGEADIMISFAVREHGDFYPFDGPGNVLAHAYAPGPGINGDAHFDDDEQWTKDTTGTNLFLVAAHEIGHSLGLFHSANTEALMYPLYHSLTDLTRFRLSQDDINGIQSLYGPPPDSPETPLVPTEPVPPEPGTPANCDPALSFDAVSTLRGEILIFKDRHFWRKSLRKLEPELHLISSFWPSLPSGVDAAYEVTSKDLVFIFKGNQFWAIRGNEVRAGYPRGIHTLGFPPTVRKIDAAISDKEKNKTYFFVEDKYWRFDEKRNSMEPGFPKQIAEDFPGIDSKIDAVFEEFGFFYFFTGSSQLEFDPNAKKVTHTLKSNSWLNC
Sequence of ColH-PD (Q46085 331-721 limits assumed): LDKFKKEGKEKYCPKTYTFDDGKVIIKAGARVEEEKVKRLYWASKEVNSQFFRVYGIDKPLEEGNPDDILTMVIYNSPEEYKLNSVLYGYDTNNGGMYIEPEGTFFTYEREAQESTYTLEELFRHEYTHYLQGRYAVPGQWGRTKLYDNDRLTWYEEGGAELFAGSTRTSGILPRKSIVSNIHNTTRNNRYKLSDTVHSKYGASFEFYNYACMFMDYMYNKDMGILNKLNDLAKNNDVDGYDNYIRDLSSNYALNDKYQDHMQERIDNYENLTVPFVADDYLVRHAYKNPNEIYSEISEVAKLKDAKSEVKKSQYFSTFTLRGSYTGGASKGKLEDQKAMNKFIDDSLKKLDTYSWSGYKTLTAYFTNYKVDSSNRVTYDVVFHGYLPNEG
Protocol for HEK293: Culturing of HepG2, A549 and HEK293 cells. The human hepatocellular carcinoma cell line HepG2, the lung adenocarcinoma cell line A549 and Human Embryonic (HEK) 293 cells were cultured in Dulbecco's Modified Eagle Medium (DMEM), containing 10% Fetal Bovine Serum
(FBS) and 1% penicillin-streptomycin mixture. Cells were maintained according to standard cell
Cytotoxicity assay. An MTT-based assay was employed to evaluate the viability of HepG2,
HEK293 and A549 cells after challenge with selected LasB inhibitors and performed as described
Protocol for P. aeruginosa PA14: Bacterial growth inhibition assay. Assays regarding the determination of the MIC were
performed as described recently for P. aeruginosa PA14.58
Protocol for zebrafish embryos: Zebrafish embryo toxicity. The experiment was performed according to a procedure described
in the literature55 with minor modifications using zebrafish embryos of the AB wild-type line at 1
day post fertilization (dpf).

As for `CC(C)CC(C(=O)Nc1ccc(F)cc1)P(=O)(O)O` (centres unmarked) [Compound 4h], the microsomal CLint in data set [1], in data set [6] and in data set [7] was less than 11.6 µL/min/mg in each case. In addition, the microsomal CLint at 1 μM in [2] and in data set [5] was less than 5.8 µL/min/mg in each case. Moreover, the half-life is more than 4 h in data set [3]; more than 4 h in “Plasma stability, mouse”; more than 4 h in the data set “Plasma stability, rat”. The compound further showed a chromatographic logD in data set [4] of -0.79. In “Plasma stability, mouse”, the half-life at 1 μM was more than 2.5 h. Moreover, the IC50 at LasB (setting [10]) stood at 92.7 ± 21.6 nM. For the same compound, on LasB (vs 4i and 4j), the “fold less active than chlorine and bromine compounds” value was determined as 2 fold.

For `Cc1ccc(NC(=O)C(CC(C)C)n2nccn2)cc1` (centres unmarked) [Compound 3m], the inhibition at 100 µM on TACE, at MMP-2, against COX-1, on HDAC-3, at MMP-3 and on HDAC-8 was less than 10% in each case. In addition, the inhibition at 100 µM on MMP-1 was less than 10%. Also, the microsomal CLint at 1 μM in data set [2] was determined as 356 ± 45 µL/min/mg; in data set [5], 18.5 ± 0.9 µL/min/mg. Further, the chromatographic logD in data set [4] was more than 1.8. In the data set “Plasma stability, mouse”, the half-life at 1 μM is more than 2.5 h. The Papp at 300 min in “Calu-3 permeability” amounted to 18 ± 1 ×10⁻⁶ cm/s. The “% growth inhibition HEK293” value with HEK293 worked out at 21 ± 1%.

On to `Cc1ccc(NC(=O)C(CC(C)C)P(=O)(O)O)cc1` (centres unmarked) [Compound 4a], for which the microsomal CLint in data set [1], in data set [6] and in [7] was less than 11.6 µL/min/mg in each case. Further, the inhibition at 100 µM at TACE, in the data set on P. aeruginosa PA14, against COX-1, against HDAC-3 and against HDAC-8 was less than 10% throughout. Further, the microsomal CLint at 1 μM in data set [2] and in [5] was less than 5.8 µL/min/mg in each case. The half-life in data set [3] is more than 4 h; in “Plasma stability, mouse” it was more than 4 h; in the data set “Plasma stability, rat”, more than 4 h. Besides, the “LasB-related cytotoxicity in csn-treated A549 cells” value in [8] is “dose-dependent reduction of LasB-related cytotoxicity”. In “Plasma stability, mouse”, the half-life at 1 μM is more than 2.5 h. Further, the “viability of lung organoids challenged with 5% PA14 csn” value in the data set with 3D lung organoids (5% PA14 csn, 48 h, MTT) is recorded as “improved in a dose-dependent manner”. Also, the “toxic effects on nontreated lung organoids” value with 3D lung organoids (concentrations tested up to 100 μM) was “did not have significant toxic effects”. The IC50 at LasB (setting [10]) came out at 51.2 ± 6.7 nM; at LasB (LasB IC50 in presence of 1% pulmonary surfactant, 1% pulmonary surfactant), 123 ± 56 nM. In data set [9], the “inhibition of SafetyScreen44 targets” value is “no significant inhibition”. The inhibition at 1 µM at ColH-PD is less than 10%. Besides, the Survival rate in the data set with zebrafish embryos (12.5 µM), with zebrafish embryos (25 µM), in the data set on zebrafish embryos (50 µM) and in the data set on zebrafish embryos (100 μM) was 100% each time. The Screening observations in the data set on zebrafish embryos (12.5 µM, 3 dpf) was 1 edema; in the data set on zebrafish embryos (12.5 µM, 4 dpf), 1 edema; in the data set on zebrafish embryos (12.5 µM, 5 dpf) it was 1 nsb, 1 edema; with zebrafish embryos (50 µM, 3 dpf) it was 1 edema; in the data set with zebrafish embryos (50 µM, 4 dpf), 1 edema; in the data set on zebrafish embryos (50 µM, 5 dpf) it was 1 nsb, 1 edema. In addition, the Screening observations in the data set with zebrafish embryos (100 µM, 5 dpf) worked out at 3 nsb. Further, in the data set on zebrafish embryos (zebrafish embryos), the “maximum tolerated concentration (MTC)” value was not below 100 µM.

Take `Cc1ccc(NC(=O)C(CC(C)C)S(=O)(=O)O)cc1` (centres unmarked) [Compound 3i]: the inhibition at 100 µM on TACE, at MMP-2, on COX-1, against HDAC-3, on MMP-3 and against HDAC-8 was less than 10% each time. The inhibition at 100 µM on MMP-1 stood at 12 ± 2%. Besides, the microsomal CLint at 1 μM in data set [2] and in data set [5] was less than 5.8 µL/min/mg each time. Besides, the chromatographic logD in data set [4] was -0.64. For the same compound, the half-life at 1 μM in “Plasma stability, mouse” is more than 2.5 h. Moreover, the 50% inhibitory concentration (IC50) against LasB (LasB IC50, FRET-based assay) is 16000 nM. In “Calu-3 permeability”, the Papp at 300 min was 0.47 ± 0.36 ×10⁻⁶ cm/s.

By microsomal CLint is commonly meant the rate of metabolic loss divided by the concentration. A higher microsomal CLint goes with faster metabolism. What is called chromatographic logD is lipophilicity estimated from chromatographic retention. High values mean higher lipophilicity, low ones lower lipophilicity. Usually IC50 stands for the concentration that inhibits the measured activity by half. Usually inhibition stands for the percentage by which the read-out fell short of the control. What is called Papp is the rate of passage across a membrane or cell layer, normalised by area and donor concentration. Lower therefore signals poor permeation.

The values are drawn from PMC10755728, “Inhibitors of the Elastase LasB for the Treatment of Pseudomonas aeruginosa Lung Infections” (ACS Central Science, 2023).
